Measured values from US20220313733A1, “METHOD FOR PRODUCING RENAL INTERSTITIAL CELL” (Kyoto University, priority 2019, published 2022).

How the values were obtained:
Format in all cases: cell-based, human
hNCCs = assay: Hypoxic response of posteriorly shifted NCCs (hNCCs): EPO secreted into the medium; details: hNCCs on Day 18, 100 μM, 1 day after addition
Procedure: EPO-producing cells are known to perform the production and secretion of EPO in response to HIF signals in a hypoxic environment. The hypoxic response of the hNCCs on Day 18 prepared in Example 1-3 was confirmed using two types of compounds that activated HIF signals (FG-2216: Selleck Chemicals #18382 and FG-4592: Selleck Chemicals #S1007, 100 μM each). Results of quantifying the amount of EPO secreted into the medium on 1 day after addition of FG-2216 or FG-4592 are shown in FIG. 3. The secretion of EPO into the medium was increased in response to hypoxic stimulation.

RSCs [1] = assay: Hypoxia-responsive ability of RSCs to produce EPO (mRNA, immunostaining); details: 100 μM
Procedure: The RSPs obtained in Example 2 were inoculated at 2×10^3 cells/well to a 6-well plate coated with fibronectin, and cultured for 15 days in STEMdiff APEL2 medium (STEMCELL Technologies Inc., ST-05275) to obtain RSCs (Days 55 to 70). The hypoxia-responsive ability to produce EPO was confirmed as to the obtained RSCs. EPO-producing cells are known to perform the production and secretion of EPO in response to HIF signals in a hypoxic environment. The RSCs were treated with a compound that activated HIF signals (FG-4592, Selleck Chemicals, #S1007, 100 μM).

[2] = system: kidney organoid (Mini-kidney); assay: EPO mRNA expression in kidney organoid (Mini-kidney) under hypoxic stimulation; details: Mini-kidney IM+RSP (D25), 100 μM
Procedure: RNA was extracted from the kidney organoid on Day 25 from the start of coculture (Mini-kidney, IM+RSP (D25)) obtained in Example 4-3 and a kidney organoid containing no RSP (KiO (D25)), and libraries for transcriptome analysis were prepared using Ion AmpliSeq™ Transcriptome Human Gene Expression Kit (Thermo Fisher Scientific, Inc.: #A26326). The prepared libraries were subjected to sequencing analysis (Ion S5 XL sequencer, Thermo Fisher Scientific, Inc.) using Ion 54™ Chip Kit (Thermo Fisher Scientific, Inc., #A27765) to quantify the expression level of EPO mRNA. The significant expression of EPO mRNA was not seen in any of an iPS cell line, IM, and the kidney organoid containing no RSP (KiO (D25)). By contrast, the significant expression of EPO mRNA was confirmed in the Mini-kidney (IM+RSP (D25)). As a result of confirming the hypoxic response of the Mini-kidney in the same manner as in Example 1-4, the EPO expression level was increased by hypoxic stimulation (100 μM FG-4592) (IM+RSP (D25) +FG4592).

[3] = system: kidney organoid (Mini-kidney); assay: Renal stromal cell marker mRNA expression in Mini-kidney under hypoxic stimulation; details: Mini-kidney IM+RSP (D25), 100 μM
Excerpt: The mRNA expression levels of renal stromal cell markers (desmin, vimentin, PDGFRβ and CD73) were quantified by the sequencing analysis of the libraries for transcriptomes prepared in Example 4-4. The expression of all the renal stromal cell markers was confirmed in the Mini-kidney (IM+RSP (D25)). As a result of confirming the hypoxic response of the Mini-kidney (IM+RSP (D25)) in the same manner as in Example 1-4, the expression levels of desmin and CD73 were decreased by hypoxic stimulation (100 μM FG-4592) (IM+RSP (D25)+FG4592).

RSCs [4] = assay: Screening system for a compound that improves a sustained fibrotic state (area of tdTomato-positive cells); details: 3, 10 or 30 μM added on D15, cultured to D24, after 10 ng/ml TGFβ1 D4 to D13
Procedure: In FIG. 15, RSCs on day 4 of culture (D4) were treated with TGFβ1 (10 ng/ml) for 9 days (D13) and then further cultured in a TGFβ1-free medium (D15) for 2 days. SB431542 (3, 10 or 30 μM) was added to the medium of the cells on D15, and the cells were further cultured for 9 days (D24). […] “Cont” depicts a negative control (without SB addition).
RSPs were inoculated at 3000 cells/well to a 384-well plate, and the induction of RSCs was started in STEMdiff APEL2 medium (STEMCELL Technologies Inc., ST-05275). On day 4 of culture (D4), fibrosis was induced by the addition of 10 ng/ml TGFβ1. During the culture period, the culture solution containing TGFβ1 was replaced with a fresh one every 3 days. On day 13 of culture (D13), TGFβ1 was removed from the medium, and culture was further continued for 2 days (D15). The TGF receptor inhibitor SB431542 (SB) was added as a test substance to the medium of the cells on D15, and the cells were further cultured for 9 days (D24). Then, the area of tdTomato-positive cells was determined.

RSCs [5] = assay: Evaluation of TGFβ1 response of RSCs (fibrosis, area of tdTomato-positive cells, αSMA)
Procedure: In vivo renal stromal cells are known to cause differentiation into αSMA-positive myofibroblasts and hypertrophy (so-called fibrosis) in response to TGFβ1 stimulation. RSCs were obtained by the methods described in Examples 1, 2 and 3-1 from the EPO-emGFP/GAPDH-tdTomato (GAPDH-tdT) dual knock-in human iPS cell line obtained in Example 4-2 mentioned later. In the method described in Example 1, the RA concentration was set to 3 μM. RSCs on day 4 of culture (D4) were treated with TGFβ1 (0.01 to 10 ng/ml) for 9 days (D13), and the degree of fibrosis was evaluated by determining the ratio of tdTomato-positive cells using image analysis software Image J (NIH). Specifically, a fluorescently taken image was converted to 8 bits for binarization, and the whole area was divided into “area of cells” and “other areas (areas containing no cell)”. The proportion was calculated according to the expression “Area of cells”/“Whole area”.

fibronectin (FN1) = assay: Biomarker search: LC/MS analysis of culture supernatant of RSCs with induced fibrosis; details: 10 ng/ml TGFβ1 for 9 days
Procedure: RSPs were inoculated at 2×10^6 cells/dish to a 10 cm dish, and the induction of RSCs was started in STEMdiff APEL2 medium (STEMCELL Technologies Inc., ST-05275). On day 7 of culture (D7), 10 ng/ml TGFβ1 was added thereto, and the cells were further cultured for 9 days to induce fibrosis.
The culture supernatant was recovered. After removal of albumin, IgG and IgA, a peptide fragment was obtained by acetone precipitation and trypsin digestion. The amino acid sequence of the peptide fragment was determined by LC/MS analysis.

RSCs [6] = assay: Fibrotic state of RSCs after removal of TGFβ1 from the medium
Procedure: In FIG. 13, RSCs on day 4 of culture (D4) were treated with TGFβ1 (1 ng/ml) for 9 days (D13 TGF) and then further cultured in a TGFβ1-containing medium (D25 TGF+) or a TGFβ1-free medium (D25 TGF−) for 12 days. […] “D25 Cont” depicts a negative control (without TGFβ1 treatment).
In FIG. 14, RSCs on day 4 of culture (D4) were treated with TGFβ1 (10 ng/ml) for 9 days (D13 TGF) and then further cultured in a TGFβ1-containing medium (D25 TGF+) or a TGFβ1-free medium (D25 TGF−) for 12 days. […] “D25 Cont” depicts a negative control (without TGFβ1 treatment).
By exploiting this property of fibrosis of RSCs, a screening system for a compound that improved a sustained fibrotic state was constructed.

RSPs = assay: Influence of bFGF, FGF9 and PDGF-BB on differentiation of RSPs into RSCs (number of cells, EPO ELISA)
Procedure: The RSPs obtained in Example 2 were inoculated at 2×10^3 cells/well to a 6-well plate coated with fibronectin, and cultured for 15 days in STEMdiff APEL2 medium (STEMCELL Technologies Inc., ST-05275) to obtain RSCs (Days 55 to 70).
The number of cells and the amount of EPO secreted into the medium which were obtained by adding 40 ng/ml bFGF, 200 ng/ml FGF9 (FUJIFILM Wako Pure Chemical Corp., #AF-100-23), and 10 ng/ml PDGF-BB (PeproTech, Inc., #100-14B) each alone or in combination to a medium were measured under the induction conditions of Example 3-1. EPO in the medium was measured by ELISA.

O=C(O)CNC(=O)c1nc(Cl)c2ccccc2c1O [FG-2216]
secretion of EPO into the medium (hNCCs): increased

Cc1nc(C(=O)NCC(=O)O)c(O)c2ccc(Oc3ccccc3)cc12 [FG-4592]
expression of EPO in response to hypoxic stimulation (RSCs [1]): found at the mRNA level and the protein level
secretion of EPO into the medium (hNCCs): increased
EPO expression level [2]: increased
expression level of CD73 [3]: decreased
expression level of desmin [3]: decreased

NC(=O)c1ccc(-c2nc(-c3ccc4c(c3)OCO4)c(-c3ccccn3)[nH]2)cc1 [SB431542, 4-[4-(1,3-benzodioxol-5-yl)-5-(2-pyridinyl)-1H-imidazol-2-yl]-benzamide]
fibrosis (area of tdTomato-positive cells) (RSCs [4]): marked suppression of fibrosis
cellular hypertrophy caused by TGFβ1 (RSCs [5]; cotreatment with TGF receptor inhibitor): suppressed

TGFβ1: isoform of transforming growth factor β, fibrosis-inducing substance
cellular hypertrophy, concentration dependence (RSCs [5]; TGFβ1 0.01 to 10 ng/ml for 9 days): caused in a TGFβ1 concentration-dependent manner
differentiation into αSMA-positive myofibroblasts and cellular hypertrophy (RSCs [5]; TGFβ1 0.01 to 10 ng/ml for 9 days (D4 to D13)): found
FN1 detected in culture supernatant of treated cells as compared with untreated cells (fibronectin (FN1)): about 10 times
fibrotic state after removing TGFβ1 from the medium (RSCs [6]; fibrosis induced by 1 ng/ml TGFβ1): restored to non-fibrotic RSCs
fibrotic state after removal of TGFβ1 from the medium (RSCs [6]; fibrosis induced by 10 ng/ml TGFβ1): maintained the fibrotic state

bFGF: basic fibroblast growth factor (FUJIFILM Wako Pure Chemical Corp.)
proliferation of the cells (RSPs; 40 ng/ml bFGF added to STEMdiff APEL2 medium): promoted

B1: PDGF-BB: platelet derived growth factor B chain homodimer (PeproTech, Inc., #100-14B) (protein, UniProt P01127 82-190, looked up)
Platelet-derived growth …: SLGSLTIAEPAMIAECKTRTEVFEISRRLIDRTNANFLVWPPCVEVQRCSGCCNNRNVQCRPTQVQLRPVQVRKIEIVRKKPIFKKATVTLEDHLACKCETVAAARPVT
amount of EPO secreted (RSPs; 10 ng/ml PDGF-BB added to STEMdiff APEL2 medium): increased
